Measurements from patent publication US20240366770A1, “DEGRADATION OF BRUTON'S TYROSINE KINASE (BTK) BY CONJUGATION OF BTK INHIBITORS WITH E3 LIGASE LIGAND AND METHODS OF USE” (BeiGene Switzerland GmbH, priority 2021, published 2024).
Like-named read-outs stand apart in the source and are kept apart here.

How the values were obtained:
BTK = target: T1, BTK (Homo sapiens, UniProt Q06187); assay: BTK degradation in TMD-8 cells (HTRF assay); assay type: cell-based; details: 6 h treatment, IC50 (DC50) of BTK degradation
T1 construct: High control=Cell group with added DMSO and without compound, indicating microplate readings without BTK degradation; endogenous in cells; host or cells: TMD-8
T1 sequence (Q06187 whole entry): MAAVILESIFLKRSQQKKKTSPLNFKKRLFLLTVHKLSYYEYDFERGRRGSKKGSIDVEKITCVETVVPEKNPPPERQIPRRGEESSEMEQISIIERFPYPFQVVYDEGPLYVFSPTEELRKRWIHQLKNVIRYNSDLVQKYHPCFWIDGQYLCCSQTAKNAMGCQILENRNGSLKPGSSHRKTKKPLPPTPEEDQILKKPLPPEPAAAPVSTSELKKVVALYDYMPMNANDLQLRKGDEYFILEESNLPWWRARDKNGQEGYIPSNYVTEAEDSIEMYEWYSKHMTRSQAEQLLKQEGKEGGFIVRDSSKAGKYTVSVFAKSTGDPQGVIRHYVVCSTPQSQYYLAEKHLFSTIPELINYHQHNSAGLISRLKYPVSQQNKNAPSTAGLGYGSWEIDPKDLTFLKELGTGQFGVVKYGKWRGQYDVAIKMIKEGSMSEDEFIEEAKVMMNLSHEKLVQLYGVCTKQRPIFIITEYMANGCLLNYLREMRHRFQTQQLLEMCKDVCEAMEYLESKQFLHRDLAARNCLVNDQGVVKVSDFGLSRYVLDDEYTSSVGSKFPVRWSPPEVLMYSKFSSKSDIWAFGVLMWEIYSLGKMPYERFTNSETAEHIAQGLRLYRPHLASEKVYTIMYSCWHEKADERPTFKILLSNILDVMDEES
Protocol: (§1) TMD-8 cells were treated with compounds diluted in 0.2% DMSO, dilution was done according to the following protocol: (1) making 500× stock solution in DMSO from 1 mM by 6-fold dilution, total 8 doses were included; (2) making 2× solution in cell culture medium by transferring 0.5 μl 500× stock solution into 125 μl medium; (3) adding 15 μl of 2× solution to cells for incubation of 6 h.
After 6 h treatment, 10 μl 4× lysis buffer was added to each well; the plate was sealed and incubated for 30 min at room temperature on a plate shaker; Once the cells was lysed, 16 μL of cell lysate were transferred to a PE 384-well HTRF detection plate; 4 μL of pre-mixed HTRF antibodies were added to each well; the plate was covered with a plate sealer, and then spinned at 1000 rpm for 1 min, then incubated overnight at room temperature; the results were read on BMG PheraStar with HTRF protocol (337 nm-665 nm-620 nm).
The IC50 (DC50) value of a compound can be obtained by fitting the following equation
(§2) wherein, X and Y are known values, and IC50, Hillslope, Top and Bottom are the parameters obtained by fitting with software. Y is the inhibition percentage (calculated from the equation), X is the concentration of the compound; IC50 is the concentration of the compound when the 50% inhibition is reached. The smaller the IC50 value is, the stronger the inhibitory ability of the compound is. Vice versa, the higher the IC50 value is, the weaker the ability the inhibitory ability of the compound is; Hillslope represents the slope of the fitted curve, generally around 1 *; Bottom represents the minimum value of the curve obtained by data fitting, which is generally 0%±20%; Top represents the maximum value of the curve obtained by data fitting, which is generally 100%±20%. The experimental data were fitted by calculating and analyzing with Dotmatics data analysis software.

HEK-293 cells = assay: HEK-293 cytotoxicity detection (CellTiter-Glo); assay type: cell-based; details: HEK-293 cells, 72 h incubation, CellTiter-Glo luminescence, IC50 of cell proliferation inhibition, read-out: HEK293
Protocol: as §1, with “HEK-293 cells” for “TMD-8 cells”, “from 5” for “from 1”, “by 4-fold” for “by 6-fold”, “0.5 ul” for “0.5 μl”, “adding 50” for “adding 15”, “of 72” for “of 6”
25 μl of the CellTiter-Glo®Reagent [(Promega) -Cat No. G7572] was added to each well in the 96-well plate. The contents were mixed for 2 minutes on an orbital shaker to induce cell lysis. The plate was then allowed to incubate at room temperature for 10 minutes to stabilize luminescent signal. Luminescence was recorded on BMG PheraStar with luminescence protocol.
The IC50 value of a compound can be obtained by fitting the following equation
as §2, with “Wherein,” for “wherein,”

| Compound | DC50 (BTK) [nM] | IC50 (HEK-293 cells; Homo sapiens) [nM] | IC50 (HEK-293 cells) [nM] |
| --- | --- | --- | --- |
| Cc1cc(-c2ncnc3[nH]c4cc(C5=CCN(CC6CCN(c7ccc(N8CCC(=O)NC8=O)cc7)CC6)C5)ccc4c23)ccc1[C@@H](C)NC(=O)c1nc(C(C)(C)C)no1 [Example 10, (R)-3-(tert-butyl)-N-(1-(4-(7-(1-((1-(4-(2,4-dioxotetrahydropyrimidin-1(2H)-yl)phenyl)piperidin-4-yl)methyl)-2,5-dihydro-1H-pyrrol-3-yl)-9H-pyrimido[4,5-b]indol-4-yl)-2-methylphenyl)ethyl)-1,2,4-oxadiazole-5-carboxamide] | 1.51 | > 10000 |  |
| COc1cc2c(cc1N1CCN([C@H]3C[C@@H](c4ccc(O[C@H]5CCC(=O)NC5=O)cc4)C3)CC1)[nH]c1ncnc(-c3ccc([C@@H](C)NC(=O)c4nc(C(C)(C)C)no4)c(C)c3)c12 [Example 128, 3-(tert-butyl)-N—((R)-1-(4-(7-(4-((1R,3s)-3-(4-(((S)-2,6-dioxopiperidin-3-yl)oxy)phenyl)cyclobutyl)piperazin-1-yl)-6-methoxy-9H-pyrimido[4,5-b]indol-4-yl)-2-methylphenyl)ethyl)-1,2,4-oxadiazole-5-carboxamide] | 2.12 |  | > 10000 |
| COc1cc2c(cc1N1CCN(CC3CC(c4ccc(C5CCC(=O)NC5=O)cc4)C3)CC1)[nH]c1ncnc(-c3ccc([C@@H](C)NC(=O)c4nc(C(C)(C)C)no4)c(C)c3)c12 (stereo partly drawn) [Example 47, 3-(tert-butyl)-N-((1R)-1-(4-(7-(4-((3-(4-(2,6-dioxopiperidin-3-yl)phenyl)cyclobutyl)methyl)piperazin-1-yl)-6-methoxy-9H-pyrimido[4,5-b]indol-4-yl)-2-methylphenyl)ethyl)-1,2,4-oxadiazole-5-carboxamide] | 1.7 | > 10000 |  |
| Cc1cc(-c2ncnc3[nH]c4cc(N5CCC6(CC5)CCN(C5CC(c7ccc(N[C@H]8CCC(=O)NC8=O)cc7)C5)CC6)ccc4c23)ccc1[C@@H](C)NC(=O)c1nc(C(C)(C)C)no1 (stereo partly drawn) [Example 108, 3-(tert-butyl)-N-((1R)-1-(4-(7-(9-((1s,3s)-3-(4-((2,6-dioxopiperidin-3-yl)amino)phenyl)cyclobutyl)-3,9-diazaspiro[5.5]undecan-3-yl)-9H-pyrimido[4,5-b]indol-4-yl)-2-methylphenyl)ethyl)-1,2,4-oxadiazole-5-carboxamide] | 2.64 |  | 949 |
| Cc1c([C@@H](C)NC(=O)c2noc(C(C)(C)C)n2)ccc(-c2ncnc3[nH]c4cc(N5CCN(Cc6ccc7c(c6)C6(CC6)C(=O)N7C6CCC(=O)NC6=O)CC5)ccc4c23)c1F (stereo partly drawn) [Example 79, 5-(tert-butyl)-N-((1R)-1-(4-(7-(4-((1′-(2,6-dioxopiperidin-3-yl)-2′-oxospiro[cyclopropane-1,3′-indolin]-5′-yl)methyl)piperazin-1-yl)-9H-pyrimido[4,5-b]indol-4-yl)-3-fluoro-2-methylphenyl)ethyl)-1,2,4-oxadiazole-3-carboxamide] | 15.9 | > 10000 |  |
| Cc1cc(-c2ncnc3[nH]c4cc(C5CCN(C6CC(c7ccc([C@H]8CCC(=O)NC8=O)cc7)C6)C5)ccc4c23)ccc1[C@@H](C)NC(=O)c1nc(C(C)(C)C)no1 (stereo partly drawn) [Example 20, 3-(tert-butyl)-N-((1R)-1-(4-(7-(1-(3-(4-((R)-2,6-dioxopiperidin-3-yl)phenyl)cyclobutyl)pyrrolidin-3-yl)-9H-pyrimido[4,5-b]indol-4-yl)-2-methylphenyl)ethyl)-1,2,4-oxadiazole-5-carboxamide] | 1.3 | 3520 |  |
| Cc1cc(-c2ncnc3[nH]c4cc(N5CCN(CC6CN(c7ccc(N8CCC(=O)NC8=O)cc7)C6)CC5)ccc4c23)ccc1[C@@H](C)NC(=O)c1nc(C2(C)CC2)no1 [Example 126, (R)—N-(1-(4-(7-(4-((1-(4-(2,4-dioxotetrahydropyrimidin-1(2H)-yl)phenyl)azetidin-3-yl)methyl)piperazin-1-yl)-9H-pyrimido[4,5-b]indol-4-yl)-2-methylphenyl)ethyl)-3-(1-methylcyclopropyl)-1,2,4-oxadiazole-5-carboxamide] | 0.449 | > 10000 |  |
| C[C@@H](NC(=O)c1nc(C(C)(C)C)no1)C1CCN(c2ncnc3[nH]c4cc(N5CCN(CC6CCN(c7ccc(N8CCC(=O)NC8=O)cc7)CC6)CC5)ccc4c23)CC1 [Example 130, (R)-3-(tert-butyl)-N-(1-(1-(7-(4-((1-(4-(2,4-dioxotetrahydropyrimidin-1(2H)-yl)phenyl)piperidin-4-yl)methyl)piperazin-1-yl)-9H-pyrimido[4,5-b]indol-4-yl)piperidin-4-yl)ethyl)-1,2,4-oxadiazole-5-carboxamide] | 63.2 | > 10000 |  |
| Cc1cc(-c2ncnc3[nH]c4cc(N5CCN(C6CC(c7ccc([C@@H]8CCC(=O)NC8=O)cc7)C6)CC5)ccc4c23)ccc1[C@@H](C)NC(=O)c1nc(C2(C)CC2)no1 (stereo partly drawn) [Example 68, N—((R)-1-(4-(7-(4-(3-(4-((S)-2,6-dioxopiperidin-3-yl)phenyl)cyclobutyl)piperazin-1-yl)-9H-pyrimido[4,5-b]indol-4-yl)-2-methylphenyl)ethyl)-3-(1-methylcyclopropyl)-1,2,4-oxadiazole-5-carboxamide] | 1.6 |  | > 10000 |
| Cc1cc(-c2ncnc3[nH]c4cc(N5CCN(CC6CCN(c7ccc(N8CCC(=O)NC8=O)cc7)CC6)CC5)ccc4c23)ccc1[C@@H](C)NC(=O)c1nc(C(C)(C)C)no1 [Example 6, (R)-3-(tert-butyl)-N-(1-(4-(7-(4-((1-(4-(2,4-dioxotetrahydropyrimidin-1(2H)-yl)phenyl)piperidin-4-yl)methyl)piperazin-1-yl)-9H-pyrimido[4,5-b]indol-4-yl)-2-methylphenyl)ethyl)-1,2,4-oxadiazole-5-carboxamide] | 0.394 | > 10000 |  |
| COc1cc2c(cc1N1CCN(Cc3ccc4c(c3)C(C)(C)C(=O)N4C3CCC(=O)NC3=O)CC1)[nH]c1ncnc(-c3ccc([C@@H](C)NC(=O)c4nc(C5(C)CC5)no4)c(C)c3)c12 (stereo partly drawn) [Example 74, N-((1R)-1-(4-(7-(4-((1-(2,6-dioxopiperidin-3-yl)-3,3-dimethyl-2-oxoindolin-5-yl)methyl)piperazin-1-yl)-6-methoxy-9H-pyrimido[4,5-b]indol-4-yl)-2-methylphenyl)ethyl)-3-(1-methylcyclopropyl)-1,2,4-oxadiazole-5-carboxamide] | 2.04 | > 10000 |  |
| Cc1cc(-c2ncnc3[nH]c4cc(N5CCC6(CC5)CCN([C@H]5C[C@H](c7ccc(N[C@@H]8CCC(=O)NC8=O)cc7)C5)CC6)ccc4c23)ccc1[C@@H](C)NC(=O)c1nc(C(C)(C)C)no1 [Example 109, 3-(tert-butyl)-N—((R)-1-(4-(7-(9-((1R,3r)-3-(4-(((R)-2,6-dioxopiperidin-3-yl)amino)phenyl)cyclobutyl)-3,9-diazaspiro[5.5]undecan-3-yl)-9H-pyrimido[4,5-b]indol-4-yl)-2-methylphenyl)ethyl)-1,2,4-oxadiazole-5-carboxamide] | 6.07 | 1010 |  |
| Cc1cc(-c2ncnc3[nH]c4cc(C5CCN(CC6CCN(c7ccc(N8CCC(=O)NC8=O)cc7)CC6)CC5)ccc4c23)ccc1[C@@H](C)NC(=O)c1nc(C(C)(C)C)no1 [Example 5, (R)-3-(tert-butyl)-N-(1-(4-(7-(1-((1-(4-(2,4-dioxotetrahydropyrimidin-1(2H)-yl)phenyl)piperidin-4-yl)methyl)piperidin-4-yl)-9H-pyrimido[4,5-b]indol-4-yl)-2-methylphenyl)ethyl)-1,2,4-oxadiazole-5-carboxamide] | 0.731 | 3250 |  |
